# Source: the supplement of paper PMC6045584
# ± gives the standard deviation of the averaged measurements.
# Experiments:
# SOTRASTAURIN/AEB071 = compound: CN1CCN(c2nc(C3=C(c4c[nH]c5ccccc45)C(=O)NC3=O)c3ccccc3n2)CC1 [SOTRASTAURIN/AEB071]; assay: surviving fraction relative to DMSO-only wells; higher = less growth inhibition; conditions: exposure time: 5 days
# Procedure, shortened: (§1)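 Tumour cell lines were grown to log phase and seeded at 250–500 cells per well in 384-well plates. They were exposed continuously to inhibitors at 0.5, 1, 5, 10, 50, 100, 500 and 1000 nM for five days, beginning 24 hours after seeding. Surviving fraction is CellTiter-Glo luminescence normalised to the median of DMSO-only wells.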
# CRIZOTINIB = compound: C[C@@H](Oc1cc(-c2cnn(C3CCNCC3)c2)cnc1N)c1c(Cl)ccc(F)c1Cl [CRIZOTINIB]; assay: as above; conditions: exposure time: 5 days
# Procedure, shortened: as §1
Test System,surviving fraction (SOTRASTAURIN/AEB071; 0.5 nM),surviving fraction (SOTRASTAURIN/AEB071; 1 nM),surviving fraction (SOTRASTAURIN/AEB071; 5 nM),surviving fraction (SOTRASTAURIN/AEB071; 10 nM),surviving fraction (SOTRASTAURIN/AEB071; 50 nM),surviving fraction (SOTRASTAURIN/AEB071; 100 nM),surviving fraction (SOTRASTAURIN/AEB071; 500 nM),surviving fraction (SOTRASTAURIN/AEB071; 1000 nM),surviving fraction (CRIZOTINIB; 0.5 nM),surviving fraction (CRIZOTINIB; 1 nM),surviving fraction (CRIZOTINIB; 5 nM),surviving fraction (CRIZOTINIB; 10 nM),surviving fraction (CRIZOTINIB; 100 nM),surviving fraction (CRIZOTINIB; 500 nM),surviving fraction (CRIZOTINIB; 1000 nM),surviving fraction (CRIZOTINIB; 50 nM)
SG32 HEADNECK,0.943 ± 0.088,1.13 ± 0.18,1.09 ± 0.22,1.05 ± 0.057,0.792 ± 0.084,0.698 ± 0.27,0.827 ± 0.13,0.795 ± 0.08,1.09 ± 0.096,1.05 ± 0.096,1.21 ± 0.066,0.936 ± 0.088,1.01 ± 0.12,0.541 ± 0.036,0.352 ± 0.016,–
MDAMB157 BREAST,0.923 ± 0.041,1 ± 0.048,1.07 ± 0.12,1.04 ± 0.091,1.01 ± 0.03,0.971 ± 0.13,0.919 ± 0.053,0.936 ± 0.031,1.03 ± 0.087,0.999 ± 0.027,1.06 ± 0.076,0.977 ± 0.044,1.04 ± 0.082,0.754 ± 0.021,0.601 ± 0.029,1.06 ± 0.11
HCC1806 BREAST,0.958 ± 0.19,0.944 ± 0.041,1.17 ± 0.078,1.08 ± 0.017,0.887 ± 0.026,1.01 ± 0.096,0.9673 ± 0.0067,0.908 ± 0.066,1.02 ± 0.13,1.09 ± 0.056,1.1 ± 0.065,–,–,0.634 ± 0.036,0.318 ± 0.007,1.13 ± 0.066
SIHA CERVIX,0.988 ± 0.039,1 ± 0.12,1.12 ± 0.041,1.06 ± 0.1,0.935 ± 0.055,0.989 ± 0.0056,0.944 ± 0.048,0.849 ± 0.05,1.08 ± 0.044,1.06 ± 0.079,1.12 ± 0.053,1.14 ± 0.061,1.09 ± 0.059,0.9 ± 0.028,0.662 ± 0.014,1.06 ± 0.046
MHM BONE,1.04 ± 0.022,1.04 ± 0.05,1.07 ± 0.032,1.04 ± 0.046,1.11 ± 0.016,1.089 ± 0.01,1.078 ± 0.0072,1.05 ± 0.032,1.03 ± 0.037,1.02 ± 0.034,1.09 ± 0.053,1.1 ± 0.047,1.05 ± 0.021,0.96 ± 0.011,0.884 ± 0.031,1.07 ± 0.02
HOSMNG BONE,0.939 ± 0.079,0.932 ± 0.025,0.994 ± 0.035,0.947 ± 0.047,1.05 ± 0.12,0.963 ± 0.028,1.11 ± 0.061,1.01 ± 0.05,0.954 ± 0.09,0.983 ± 0.1,–,–,0.501 ± 0.017,0.329 ± 0.032,0.227 ± 0.011,0.649 ± 0.012
C33A CERVIX,0.938 ± 0.17,1.05 ± 0.059,1.14 ± 0.045,1.05 ± 0.12,1.19 ± 0.071,1.16 ± 0.13,1.14 ± 0.077,1.2 ± 0.086,0.954 ± 0.064,0.983 ± 0.088,–,1.04 ± 0.13,–,0.925 ± 0.076,0.828 ± 0.092,–
BT549 BREAST,0.889 ± 0.093,1.06 ± 0.068,1.01 ± 0.19,1.16 ± 0.2,0.904 ± 0.095,0.897 ± 0.035,0.919 ± 0.12,1.07 ± 0.16,–,1.07 ± 0.056,–,1.06 ± 0.041,1.09 ± 0.097,–,0.375 ± 0.016,1.05 ± 0.062
MDAMB231 BREAST,0.955 ± 0.013,0.974 ± 0.037,1.01 ± 0.022,0.984 ± 0.031,1 ± 0.046,1.02 ± 0.0072,1.08 ± 0.033,1.05 ± 0.024,0.997 ± 0.019,1.01 ± 0.024,0.999 ± 0.034,1 ± 0.023,0.9384 ± 0.0074,0.541 ± 0.011,0.352 ± 0.022,0.947 ± 0.031
SG27 HEADNECK,1.1 ± 0.093,1.11 ± 0.04,0.984 ± 0.051,0.984 ± 0.1,1.13 ± 0.13,1.1 ± 0.041,1.15 ± 0.058,1.26 ± 0.1,1.25 ± 0.084,1.09 ± 0.11,–,1.14 ± 0.022,1.11 ± 0.091,1.18 ± 0.13,–,1.12 ± 0.17
SYO1 SYNOVIAL,1.02 ± 0.053,1.01 ± 0.058,1.04 ± 0.063,0.991 ± 0.068,0.869 ± 0.031,0.875 ± 0.021,0.891 ± 0.038,0.909 ± 0.038,0.967 ± 0.015,1.03 ± 0.029,0.953 ± 0.094,1 ± 0.028,0.891 ± 0.018,0.399 ± 0.03,0.169 ± 0.008,0.978 ± 0.042
HUO3N1 BONE,1 ± 0.051,1.04 ± 0.075,1.08 ± 0.025,1.08 ± 0.054,1.001 ± 0.01,1.02 ± 0.025,0.897 ± 0.024,0.883 ± 0.017,1.03 ± 0.016,1.02 ± 0.049,1.117 ± 0.0087,1.07 ± 0.083,–,–,0.787 ± 0.061,–
NCIH441 LUNG,1.03 ± 0.069,1.03 ± 0.043,1.16 ± 0.034,0.969 ± 0.072,1.02 ± 0.068,1 ± 0.022,1.07 ± 0.037,0.957 ± 0.083,1.23 ± 0.069,1.2 ± 0.067,1.09 ± 0.038,1.12 ± 0.043,0.967 ± 0.089,1.02 ± 0.058,0.83 ± 0.16,1.04 ± 0.045
ASKA SYNOVIAL,1.14 ± 0.086,1.1 ± 0.074,1.18 ± 0.057,1.2 ± 0.097,1.03 ± 0.073,1.02 ± 0.028,0.998 ± 0.068,0.995 ± 0.077,–,0.942 ± 0.039,0.848 ± 0.05,0.7377 ± 0.007,0.405 ± 0.016,0.168 ± 0.0038,0.205 ± 0.0093,0.539 ± 0.043
PCI30 HEADNECK,0.958 ± 0.054,0.951 ± 0.062,1.07 ± 0.044,0.991 ± 0.083,1.05 ± 0.067,1.02 ± 0.072,1.07 ± 0.093,1.18 ± 0.1,1.07 ± 0.075,1.12 ± 0.058,1.02 ± 0.028,1.1 ± 0.072,–,0.759 ± 0.055,0.6787 ± 0.0025,1.03 ± 0.024
T47D BREAST,1.03 ± 0.05,1.042 ± 0.0044,0.988 ± 0.034,1.03 ± 0.038,1.03 ± 0.05,1.05 ± 0.014,1.1 ± 0.028,1.09 ± 0.022,1.07 ± 0.024,1.08 ± 0.079,1.1 ± 0.043,1.08 ± 0.03,1.099 ± 0.0093,1.03 ± 0.038,0.93 ± 0.041,1.07 ± 0.045
HCT15 LARGE INTESTINE,1.03 ± 0.12,1.07 ± 0.024,1.05 ± 0.053,1.02 ± 0.081,1.05 ± 0.054,1.05 ± 0.061,1.02 ± 0.079,1.05 ± 0.069,1.05 ± 0.083,1.1 ± 0.1,1.14 ± 0.044,–,1.17 ± 0.04,1.09 ± 0.049,0.265 ± 0.022,1.18 ± 0.042
HCC1954 BREAST,1.1 ± 0.09,1.1 ± 0.08,1.2 ± 0.11,1.19 ± 0.27,0.63 ± 0.2,0.682 ± 0.12,0.502 ± 0.072,0.674 ± 0.16,1.16 ± 0.14,1.25 ± 0.11,–,1.55 ± 0.21,0.987 ± 0.06,0.831 ± 0.082,0.689 ± 0.12,1.03 ± 0.18
HSSYII SYNOVIAL,0.909 ± 0.02,0.985 ± 0.084,0.984 ± 0.022,0.98 ± 0.02,0.87 ± 0.069,0.83 ± 0.065,0.833 ± 0.015,0.839 ± 0.039,1.04 ± 0.045,1.03 ± 0.037,1.03 ± 0.05,1 ± 0.083,–,0.392 ± 0.037,0.189 ± 0.0013,0.934 ± 0.034
MFM223 BREAST,1.12 ± 0.12,1.18 ± 0.094,1.07 ± 0.084,1.12 ± 0.076,0.849 ± 0.18,0.716 ± 0.081,0.719 ± 0.038,0.711 ± 0.035,1.21 ± 0.058,1.2 ± 0.019,1.21 ± 0.058,1.11 ± 0.033,–,1.07 ± 0.011,1.084 ± 0.0027,1.07 ± 0.058
MDAMB468 BREAST,0.911 ± 0.041,0.9443 ± 0.0091,1.02 ± 0.061,0.932 ± 0.019,0.964 ± 0.09,0.964 ± 0.077,0.947 ± 0.076,0.868 ± 0.053,1.08 ± 0.018,1.12 ± 0.072,1.11 ± 0.023,1.1 ± 0.094,1.06 ± 0.015,0.666 ± 0.039,0.276 ± 0.007,1.16 ± 0.029
CHLA90 AUTONOMIC GANGLIA,0.975 ± 0.024,0.962 ± 0.046,1.02 ± 0.074,0.943 ± 0.081,1.05 ± 0.12,1 ± 0.083,1.06 ± 0.097,0.978 ± 0.17,–,1 ± 0.025,0.951 ± 0.016,0.929 ± 0.056,–,0.755 ± 0.14,0.476 ± 0.096,–
